Source: paper PMC3199744, “Preformulation and stability in biological fluids of the retrocyclin RC-101, a potential anti-HIV topical microbicide” (AIDS Research and Therapy, 2011)

Key:
[1] = tested on: human ectocervical tissue; settings: preliminary studies, data not shown
[2] = tested on: normal vaginal microflora; settings: preliminary studies, data not shown
[3] = Oxidation of RC-101 by hydrogen peroxide, HPLC; settings: EDTA 1.0 μg/mL, H2O2 0.002%, RC-101 500 μg/mL, HPLC over time
Method: For all pre-formulation studies described below, triplicate solutions of RC-101 (500 μg/mL) were prepared in either water or aqueous buffer solution. Thermal degradation studies were conducted at 25, 37, and 65°C for a minimum period of 1 week. The effect of pH on the stability of RC-101 was evaluated over the pH range from 3 to 12 using 10 mM phosphate buffer solutions, at low (50 mmol/kg) and high (500 mmol/kg) ionic strength. Oxidation of RC-101 was evaluated by exposing a solution of RC-101 to hydrogen peroxide (H2O2) at concentrations of 3.0, 0.08, and 0.002% (v/v). The high H2O2 concentration (3.0%) was selected as a forced degradation concentration. […] Protection against oxidation was investigated by the addition of antioxidants commonly used in pharmaceutical products. The antioxidants used in this study were: methionine (95.2 μg/mL or 250 μg/mL), cysteine (95.2 μg/mL), glutathione (90.9 μg/mL), vitamin E TPGS (90.9 μg/mL), ascorbic acid (1.0 mg/mL), sodium ascorbate (1.0 mg/mL), and EDTA (1.0 μg/mL).
RC-101 concentration after exposure to preformulation conditions was analyzed by HPLC as previously described [11]. Briefly, the HPLC system (Waters Corporation, Milford, MA) was equipped with an autoinjector model 717, a quaternary pump model 600, and an ultraviolet (UV) detector model 2487 set up at 215 nm. Separation of RC-101 from degradant products was achieved using a Phenomenex Jupiter 5 μC5 300 Å (4.6 × 250 mm) column (Phenomenex, Torrance, CA) protected by a Widepore C5 (4 × 3.0 mm) guard cartridge (Phenomenex). The gradient consisted of mobile phase A (0.1% TFA in water (v/v)), and mobile phase B (0.07% TFA in acetonitrile (v/v)) pumped at a flow rate of 1.0 mL/min. […]
HPLC data obtained from the preformulation studies were expressed as the average percentage of the peak area from time 0 ± standard deviation, n = 3. Results were analyzed by one-way analysis of variance (ANOVA) with multiple comparisons of individual time points by using post hoc Bonferroni correction to detect significant differences under different conditions. […]

For O=C(O)CN(CCN(CC(=O)O)CC(=O)O)CC(=O)O [EDTA, Ethylenediamine tetraacetic acid], which toxic concentration [1] is on record?
The toxic concentration was ≥ 1%.

And the toxic concentration [2]?
The toxic concentration was ≥ 1%.

What about the “protection of RC-101 against oxidation after exposure to H2O2” value [3] of the same molecule?
The value was “protection”.
